Consider 9 compounds from paper PMC3139790 (Bioorganic & medicinal chemistry, 2011).

The term EC50 denotes the midpoint of the concentration-response curve.

One assay concerns HCMV. Conditions: read-out: EC50 HCMV; in vitro; ref Beadle et al. (ref. [13]); cited from earlier work.
In a further assay the test system is Vaccinia. The conditions noted are these: read-out: EC50 Vaccinia; in vitro; ref Beadle et al. (ref. [13]); cited from earlier work.
A further assay deals with Cowpox. The conditions noted are these: read-out: EC50 Cowpox; cited from earlier work.
In assay [1] the test system is genotype 1b and 2a HCV replicons. Briefly: HCV replicon assays, genotype 1b and 2a stated together. The class given is cell-based, hepatitis C virus. The conditions noted are these: for EC50: Hepatitis C virus, GETYPE1B, read-out: EC50 in genotype 1b and 2a HCV replicons. Background: Replicon systems follow genome replication, usually without infectious particles.
Assay [2] has as its system genotype 2a HCV replicon (JFH-1). The experiment in a line: HCV replicon assay, JFH-1. Format: cell-based, hepatitis C virus. The conditions noted are these: CC50/EC50, genotype 2a.
Assay [3] has as its system genotype 1b HCV replicon (BM4-5). Briefly: HCV replicon assay, BM4-5. The class given is cell-based, hepatitis C virus. Conditions: CC50/EC50, genotype 1b.
The test system of assay [4] is HIV-1LAI. The experiment in a line: HIV-1 inhibition assay in MT-2 cells. The class given is cell-based. Conditions: HIV-1 in MT-2 cells.
Assay [5] deals with HIV-1LAI. Conditions: HIV-1 infected MT-2 cells, previous studies; cited from earlier work.

As to `CCCCCCCCCCCCCCCCCCOCCOP(=O)(O)CO[C@H](CO)Cn1cnc2c(N)ncnc21` [Compound 1, octadecyloxyethyl 9-(S)-[3-hydroxy-2-(phosphonomethoxy)propyl]adenine], the EC50 in the assay with HCMV is 3 ± 1 nM; with Vaccinia it was 20 ± 10 nM; in the assay with Cowpox it was 50 ± 40 nM.

With `CCCCCCCCCCCCCCCCCCOCCOP(=O)(O)CO[C@H](COC)Cn1cnc2c(N)ncnc21` [Compound 15, Octadecyloxyethyl (S)-9-[(3-methoxy-2-phosphonomethoxy)propyl]adenine], in assay [1], the EC50 was in the range of 1000 to 2000 nM. For `CCCCCCCCCCCCCCCCCCOCCOP(=O)([O-])CO[C@H](COC)Cn1cnc2c(=O)[nH]c(N)nc21.[Na+]` [Compound 34, Octadecyloxyethyl (S)-9-[(3-methoxy-2-phosphonomethoxy)propyl]guanine], the “Selectivity Index JFH-1 (2a)” value in assay [2] is greater than 14.0. Further, the “Selectivity Index BM4-5 (1b)” value in assay [3] is given as greater than 18.2. Turning to `CCCCCCCCCCCCCCCCCCOCCOP(=O)([O-])CO[C@@H](COC)Cn1cnc2c(=O)[nH]c(N)nc21.[Na+]` [Compound 35, Octadecyloxyethyl (R)-9-[(3-methoxy-2-phosphonomethoxy)propyl]guanine], the “Selectivity Index” value with HIV-1LAI [4] is >4.4×10^6. Further, the “Selectivity Index JFH-1 (2a)” value in assay [2] is greater than 12.1. The “Selectivity Index BM4-5 (1b)” value in assay [3] was greater than 11.9. As for `CCCCCCCCCCCCCCCCCCOCCOP(=O)([O-])CO[C@H](COC)Cn1ccc(N)nc1=O.[Na+]` [Compound 40, Octadecyloxyethyl (S)-1-[(3-methoxy-2-phosphonomethoxy)propyl]cytosine], in assay [1] (genotype 1b and 2a replicons), the “anti-HCV activity (in words)” value is “inactive”.

For the compound `CCCCCCCCCCCCCCCCOCCCOP(=O)(O)CO[C@H](COC)Cn1cnc2c(OC)ncnc21` [Compound 43, Hexadecyloxypropyl (S)-9-[(3-methoxy-2-phosphonomethoxy)propyl]-6-methoxypurine], the EC50 in assay [1] was in the range of 8900 to 12500 nM. The same measure, in the same setting: with `CCCCCCCCCCCCCCCCOCCCOP(=O)(O)CO[C@H](COC)Cn1cnc2c(OC)nc(N)nc21` [Compound 44, Hexadecyloxypropyl (S)-9-[(3-methoxy-2-phosphonomethoxy)propyl]-6-O-methylguanine] the figure was 18000 to 26000 nM.

As to `Nc1ncnc2c1ncn2CCOCP(=O)(O)O` [adefovir], in the assay on HIV-1LAI [5], the EC50 was 1100 nM.

On to `C[C@H](Cn1cnc2c(N)ncnc21)OCP(=O)(O)O` [tenofovir], for which, in the assay on HIV-1LAI [5], the EC50 is 650 nM.
